Measured values published in EP4656642A1, “ESTROGEN RECEPTOR PROTEOLYSIS TARGETING CHIMERA COMPOUND AND USE THEREOF” (GAN & LEE PHARM CO., LTD, priority 2023, dated 2024).

How the values were obtained:
Format in all cases: cell-based
MCF-7 cells = assay: Inhibition of cell proliferation of MCF-7 cells (CCK-8, 9 days); settings: treated for 9 days, CCK-8 kit (Table 6)
Outline: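 Read-out was CCK-8 viability after 9-day continuous exposure (37°C, 5% CO2) of MCF-7 cells plated at 800/well in 10% FBS DMEM across several compound concentrations. Values are proliferation IC50s.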

ERα [1] = target: T1, ERα (Homo sapiens, UniProt P03372); assay: Degradation of ERα in MCF-7 cells (immunoblotting, 4 h)
T1 sequence (P03372 1-595): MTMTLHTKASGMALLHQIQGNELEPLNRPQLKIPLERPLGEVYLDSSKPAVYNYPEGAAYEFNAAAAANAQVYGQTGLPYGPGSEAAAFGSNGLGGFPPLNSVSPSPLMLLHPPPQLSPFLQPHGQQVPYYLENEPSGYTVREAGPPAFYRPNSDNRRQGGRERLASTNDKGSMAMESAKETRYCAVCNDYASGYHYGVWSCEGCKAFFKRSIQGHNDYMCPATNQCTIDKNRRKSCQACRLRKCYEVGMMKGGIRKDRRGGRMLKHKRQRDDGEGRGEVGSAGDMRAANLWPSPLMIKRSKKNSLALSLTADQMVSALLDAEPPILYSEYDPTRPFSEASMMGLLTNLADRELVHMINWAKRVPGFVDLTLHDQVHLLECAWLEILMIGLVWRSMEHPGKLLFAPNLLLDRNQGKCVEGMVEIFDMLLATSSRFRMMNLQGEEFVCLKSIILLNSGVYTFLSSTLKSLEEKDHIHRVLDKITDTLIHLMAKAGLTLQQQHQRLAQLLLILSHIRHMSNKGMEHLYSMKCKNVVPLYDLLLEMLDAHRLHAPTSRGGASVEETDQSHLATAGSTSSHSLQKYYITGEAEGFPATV
Outline: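 Degradation rate reflects ERα band intensity, corrected to an internal reference protein, relative to control. Values come from Western blotting of lysates from MCF-7 cells exposed 4 h at 37°C to compounds at final concentrations of 0.15-1000nM.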

ERα [2] = target: T1, ERα; assay: Degradation of ERα in T-47D cells (immunoblotting, 4 h); design: host or cells: T-47D
Outline: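 ERα protein levels were assessed by immunoblot of RIPA lysates (with protease inhibitor) after 4 h exposure at 37°C. Compound was added in DMSO to T-47D cells at final concentrations of 0.15-1000 nM.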

SMILES	IC50 (MCF-7 cells)	Degradation rate (%) of ERα in MCF-7 cells (ERα [1]; 1nM compound)	Degradation rate (%) of ERα in MCF-7 cells (ERα [1]; 10nM compound)	Degradation rate (%) of ERα in T-47D cells (ERα [2]; 1nM compound)	Degradation rate (%) of ERα in T-47D cells (ERα [2]; 10nM compound)
O=C1CCC(N2Cc3c(ccc4c3OCC43CCN(C(=O)[C@H]4CC[C@H](OC5CCN(c6ccc([C@@H]7c8ccc(O)cc8CC[C@@H]7c7ccccc7)cc6)CC5)CC4)CC3)C2=O)C(=O)N1 (some centres unmarked) [D8]	11.4 µM	9%	62%	33%	75%
C[C@@H]1Cc2c([nH]c3ccccc23)[C@@H](c2c(F)cc(N3CCC(C(=O)N4CCC(N5CCC6(CC5)COc5c6ccc6c5CN(C5CCC(=O)NC5=O)C6=O)[C@H](F)C4)CC3)cc2F)N1CC(F)F (some centres unmarked) [D9]	0.0108 µM	22%	55%	52%	82%
C[C@@H]1Cc2c([nH]c3ccccc23)[C@@H](c2c(F)cc(N3CCC4(CC3)CC(N3CC[C@@H](N5CCC6(CC5)COc5c6ccc6c5CN(C5CCC(=O)NC5=O)C6=O)[C@@H](F)C3)C4)cc2F)N1CC(F)F (some centres unmarked) [D10]	0.0125 µM	3%	58%	24%	77%
C[C@@H]1Cc2c([nH]c3ccccc23)[C@@H](c2c(F)cc(N3CCC(N4CC[C@@H](N5CCC6(CC5)COc5c6ccc6c5CN(C5CCC(=O)NC5=O)C6=O)[C@@H](F)C4)CC3)cc2F)N1CC(F)F (some centres unmarked) [D11]	0.0192 µM	6%	66%	52%	82%
CN(C[C@H]1CC[C@H](C(=O)N2CCC3(CC2)COc2c3ccc3c2CN(C2CCC(=O)NC2=O)C3=O)CC1)[C@H]1CCN(c2ccc([C@@H]3c4ccc(O)cc4CC[C@@H]3c3ccccc3)cc2)C[C@H]1F (some centres unmarked) [D13]	0.186 µM	42%	68%	54%	82%
O=C1CCC(N2Cc3c(ccc4c3OCC43CCN(C(=O)C4CCN(CC5(F)CCN(c6ccc([C@@H]7c8ccc(O)cc8CC[C@@H]7c7ccccc7)cc6)CC5)CC4)CC3)C2=O)C(=O)N1 (some centres unmarked) [E1]	0.0126 µM	39%	75%	57%	82%
C[C@@H]1Cc2cc(O)ccc2C(c2c(F)cc(N3CCC4(CCN(CC(=O)N5CCC6(CC5)COc5c6ccc6c5CN(C5CCC(=O)NC5=O)C6=O)CC4)CC3)cc2F)N1CC(F)F (some centres unmarked) [F4]	0.000103 µM	64%	63%	62%	79%
C[C@@H]1Cc2cc(O)ccc2C(c2c(F)cc(N3CCC4(CCN(CC(=O)N5CCC6(CC5)COc5c6ccc6c5CN(C5CCC(=O)NC5=O)C6=O)C4)CC3)cc2F)N1CC(F)F (some centres unmarked) [F8]	0.203 µM	63%	63%	61%	68%
C[C@@H]1Cc2cc(O)ccc2C(c2c(F)cc(N3CCC(N4CCC(C(=O)N5CCC6(CC5)COc5c6ccc6c5CN(C5CCC(=O)NC5=O)C6=O)CC4)CC3)cc2F)N1CC(F)F (some centres unmarked) [F9]	4.36 µM	46%	45%	42%	38%
C[C@@H]1Cc2cc(O)ccc2C(c2c(F)cc(N3CCC(C(=O)N4CCC(N5CCC6(CC5)COc5c6ccc6c5CN(C5CCC(=O)NC5=O)C6=O)[C@H](F)C4)CC3)cc2F)N1CC(F)F (some centres unmarked) [F10]	0.00381 µM	53%	43%	59%	65%
O=C1CCC(N2Cc3c(ccc4c3OCC43CCN(C4CCN(CC5CCN(c6ccc([C@@H]7c8ccc(O)cc8CC[C@@H]7c7ccccc7)cc6)CC5)CC4)CC3)C2=O)C(=O)N1 (some centres unmarked) [G1]	0.00413 µM	25%	35%	22%	53%
O=C1CCC(N2Cc3c(ccc4c3OCC43CCN(C4CC5(CCN(C6CC7(CCN(c8ccc([C@@H]9c%10ccc(O)cc%10CC[C@@H]9c9ccccc9)cc8)CC7)C6)CC5)C4)CC3)C2=O)C(=O)N1 (some centres unmarked) [G8]	0.749 µM	29%	73%	45%	81%
O=C1CCC(N2Cc3c(ccc4c3OCC43CCN(C4CC5CCC(C4)N5C(=O)C4CCN(c5ccc([C@@H]6c7ccc(O)cc7CC[C@@H]6c6ccccc6)cc5)CC4)CC3)C2=O)C(=O)N1 (some centres unmarked) [G10]	0.0182 µM	45%	66%	62%	85%
C[C@H]1C[C@@H](N2CCC3(CC2)COc2c3ccc3c2CN(C2CCC(=O)NC2=O)C3=O)CCN1C(=O)C1CCN(c2ccc([C@@H]3c4ccc(O)cc4CC[C@@H]3c3ccccc3)cc2)CC1 (some centres unmarked) [G11]	0.89 µM	38%	56%	55%	80%
O=C1CCC(N2Cc3c(ccc4c3OCC43CCN(C4CCN(C(=O)C5CCN(c6ccc(C7c8ccc(O)cc8CCC7c7ccccc7)cc6)CC5)CC4F)CC3)C2=O)C(=O)N1 (centres unmarked) [G12]	0.00927 µM	24%	57%	47%	81%
O=C1CCC(N2Cc3c(ccc4c3OCC43CCN(C4CCN(C5CCN(c6ccc(C7c8ccc(O)cc8CCC7c7ccccc7)cc6)CC5)CC4F)CC3)C2=O)C(=O)N1 (centres unmarked) [G13]	0.00682 µM	30%	71%	43%	80%
O=C1CCC(N2Cc3c(ccc4c3OC3(CC4)CCN(C4CCN(C(=O)C5CCN(c6ccc([C@@H]7c8ccc(O)cc8CC[C@@H]7c7ccccc7)cc6)CC5)CC4)CC3)C2=O)C(=O)N1 (some centres unmarked) [G15]	0.0102 µM	-19%	20%	39%	72%
O=C1CCC(N2Cc3c(ccc4c3OCC43CCN(C(=O)C4CCC(CN5CCN(c6ccc(C7c8ccc(O)cc8CCC7c7ccccc7)cc6)CC5)CC4)CC3)C2=O)C(=O)N1 (centres unmarked) [G16]	0.00307 µM	54%	70%	68%	81%
O=C1CCC(N2Cc3c(ccc4c3OCC43CCN(C[C@H]4CC[C@H](C(=O)N5CCN(c6ccc([C@@H]7c8ccc(O)cc8CC[C@@H]7c7ccccc7)cc6)CC5)CC4)CC3)C2=O)C(=O)N1 (some centres unmarked) [G18]	0.129 µM	63%	77%	49%	78%
C[C@@H]1Cc2c(ccc3[nH]ncc23)C(c2c(F)cc(N3CCC4(CCC(N5CCC6(CC5)COc5c6ccc6c5CN(C5CCC(=O)NC5=O)C6=O)CC4)CC3)cc2F)N1CC(F)F (some centres unmarked) [G20]	0.0497 µM	22%	45%	51%	69%
CC1Cc2c(ccc3[nH]ncc23)C(c2c(F)cc(N3CCC4(CC3)CC(N3CCC(N5CCC6(CC5)COc5c6ccc6c5CN(C5CCC(=O)NC5=O)C6=O)C(F)C3)C4)cc2F)N1CC(F)F (centres unmarked) [G22]	0.00508 µM	50%	65%	34%	63%
O=C1CCC(N2Cc3c(ccc4c3OCC43CCN(C(=O)C45CCC(CN6CCN(c7ccc([C@@H]8c9ccc(O)cc9CC[C@@H]8c8ccccc8)cc7)CC6)(CC4)CC5)CC3)C2=O)C(=O)N1 (some centres unmarked) [G23]	0.445 µM	1%	43%	28%	62%
